Test results reported in article PMC10889360, “Therapeutic targeting Tudor domains in leukemia via CRISPR-Scan Assisted Drug Discovery” (Science Advances, 2024).
Structures can show the parent of a compound that is named as a salt. Where two headings read alike, the source gives them in different places. No end group written: not given here. Me3 = trimethyl (trimethyl-lysine)

B1: H3(1-18)K4me3-bio (biotinylated H3K4me3) peptide (peptide, UniProt P68431 2-19, looked up)
peptide: ARTK(Me3)QTARKSTGGKAPRK
modifications: also: biotin, position not given here
notes: histone H3, residues 1-18, trimethylated at lysine 4; source: synthetic peptide (Thermo Fisher Scientific)

Legend:
[1] = system: MV4-11; experiment: cells; parameters: species or system MV4-11; U251; details: for viability at 10 µM: Homo sapiens, read-out: % viability; for % viability: 10 µM
Method: (§1) Compound information and source are listed in data S9. For Cpd_DC60, the initial small scale was obtained from the NCI Developmental Therapeutics Program (NCI/DTP) Open Chemicals Repository. Additional Cpd_DC60 was then custom synthesized by Ambinter (Orléans, France). MV4-11 cells were seeded at 20,000 cells per well, and U251 cells were seeded at 10,000 cells per well. Cells were cultured in 96-well plates at 100 μl per well and replated with fresh medium and compound every 3 days for up to 9 days. At each time point, 15 μl of the CellTiter-Glo 2.0 assay reagent (G9242, Promega) and 20 μl of resuspended cells were mixed in white flat-bottom 96-well plates (353296, Corning), and subsequently, the resultant luminescence was measured using an Infinite M1000 Pro plate reader (Tecan Trading AG, Switzerland). The relative CellTiter Glo signal was normalized to the control condition (DMSO) at each reading time point. Next, we examined the response of SGF29-dependent MV4-11 leukemia cells and the SGF29-independent U251 glioblastoma cells (see Fig. 1H) to these 190 candidate compounds (plus 15 reference compounds) using a CellTiter Glo screen. […] Compared to the pan-cancer inhibitors I-BET151 [inhibits the bromodomain of Bromodomain and Extra-Terminal motif (BET)] ([36]) and JQ1 (blocks BRD4 bromodomain) ([10]), we observed several known leukemia-targeting compounds (EPZ-5676, OICR-9429, A-485, and A-366) ([37]–[40]) within the 19 MV4-11 selective inhibitors (detailed in fig. S7A). On the basis of the selective killing against MV4-11 (Δ Score, i.e., differential CellTiter Glo % between MV4-11 and U251 on day 9), we then chose the top six ranked candidate compounds (Cpd_DC60, 201, 11, 157, 182, and 21) for further investigation (fig. S7B). […] Identification of SGF29 lead inhibitor by CRISPR-SADD workflow. (A) Schematic outline of the Sgf29 high-density CRISPR tiling scan in MLL-AF9-Cas9^+ cells. (B) Two-dimensional annotation of Sgf29 CRISPR-Scan. The blue line indicates the smoothened model of the CRISPR-Scan score derived from 147 sgRNAs (dots) targeting the coding exons of Sgf29. The median NCS scores of the positive control (red dotted line; defined as −1.0) and negative control (green dotted line; defined as 0.0) sgRNAs are highlighted. The blue dashed box indicates the SGF29-TTD domain. (C) Three-dimensional annotation Sgf29 CRISPR-Scan score relative to an x-ray crystal structural model of human SGF29-TTD (PDB ID: 3ME9). The CRISPR hypersensitive (red) aromatic cage of SGF29 Tudor_2 domain is highlighted. (D) Docking box (cube) defined by overlapping the PrankWeb predicted ligandable protein surface (surface contour marked by the dotted pink-line) with the CRISPR hypersensitive region of SGF29-TTD (red areas). (E) Heatmap showing the relative CellTiter Glo signal [% to dimethyl sulfoxide (DMSO) control] of MV4-11 and U251 cells incubated with 205 selected compounds (10 μM) for 3, 6, and 9 days. The effective killing was defined as less than 10% relative CellTiter Glo signal on day 9. Four clusters of compounds are identified, including the U251 selective (7 cpds), noneffective (157 cpds), general toxic (22 cpds), and MV4-11 selective (19 cpds) groups. (F and G) Western blot of (F) MOLM13 cells and (G) MV4-11 cells incubated with Cpd_DC60 (20 μM) for 48 hours. (H) Effect of Cpd_DC60 on the SGF29-TTD/H3K4me3 AlphaScreen signal. (I) Left: Docking simulation model of SGF29-TTD (colored by NCS) interacts with Cpd_DC60 (yellow). Right: Overlap of SGF29-TTD/H3K4me3 (cyan) cocrystal structure (PDB ID: 3ME9) with the predicted Cpd_DC60 (yellow) binding post on SGF29-TTD. The “aromatic cage” that consists of Y238, Y245, and F264 is indicated. a.a., amino acid. IC50, median inhibitory concentration.

[2] = system: U251 (U-251); experiment: cells; parameters: species or system MV4-11; U251; details: for viability at 10 µM: Homo sapiens, read-out: % viability; for % viability: 10 µM
Method: as §1

[3] = target: T1, recombinant His6-tagged SGF29 tandem Tudor domain (SGF29-TTD), residues Met114 to Lys293 (human, UniProt Q96ES7 114-293); experiment: AlphaScreen or HTRF; AlphaScreen Histidine (Nickel Chelate) Detection Kit; 75 nM SGF29-TTD, 150 nM H3(1-18)K4me3-bio, 0.8% DMSO, acceptor/donor beads 20 ug/ml; 50 mM Hepes, 100 mM NaCl, 5 mM TCEP, pH 7.4; 25 C, 3 hours; signal blocked by the small molecule Cpd_DC60; details: both partners purified
T1 construct: SAGA-associated factor 29 (SGF29), human, tandem Tudor domain, residues Met114 to Lys293, UniProt Q96ES7; 22.9 kDa with the tag; Codon-optimised cDNA with synonymous changes only; No tag cleavage is described; the chain is detected by the nickel chelate AlphaScreen beads; The forward primer carries the end of a TEV site (ENLYFQS) from the vector before Met114; also called SGF29_Tudor 2; …
T1 sequence (looked up): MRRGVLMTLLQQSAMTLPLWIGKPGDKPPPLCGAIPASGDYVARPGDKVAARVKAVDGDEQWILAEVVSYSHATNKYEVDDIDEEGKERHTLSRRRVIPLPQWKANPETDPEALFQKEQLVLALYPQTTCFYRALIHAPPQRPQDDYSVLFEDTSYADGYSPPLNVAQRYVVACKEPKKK

binding result [3] | Molecule | viability at 10 µM ([1]; MV4-11, 72 h) [%] | viability at 10 µM ([1]; MV4-11, 144 h) [%] | viability at 10 µM ([1]; MV4-11, 216 h) [%] | viability at 10 µM ([2]; U-251, 72 h) [%] | viability at 10 µM ([2]; U-251, 144 h) [%] | viability at 10 µM ([2]; U-251, 216 h) [%] | % viability ([1]; day 3, 72 h) [%] | % viability ([1]; day 6, 144 h) [%] | % viability ([1]; day 9, 216 h) [%] | % viability ([2]; day 3, 72 h) [%] | % viability ([2]; day 6, 144 h) [%] | % viability ([2]; day 9, 216 h) [%]
– | Nc1c(Br)cc([N+](=O)[O-])cc1Br [compound 240, ZINC000001641734] | 95.7 | 86.7 | 89 | 110 | 106 | 115 | – | – | – | – | – | –
– | CCC[C@H](NC(=O)[C@@H]1[C@H]2CCC[C@H]2CN1C(=O)[C@@H](NC(=O)[C@@H](NC(=O)c1cnccn1)C1CCCCC1)C(C)(C)C)C(=O)C(=O)NC1CC1 [compound 76, Telaprevir (VX-950)] | – | – | – | – | – | – | 12.16 | 1.882 | 0.2706 | 49.36 | 17.7 | 2.593
– | O=C(Cc1ccccc1)Nc1ccc2oc(-c3ccc4ccccc4c3)nc2c1 [compound 172, ZINC000001204199] | 114 | 101 | 78.6 | 108 | 107 | 112 | – | – | – | – | – | –
– | COc1cc2c(cc1-c1c(C)noc1C)ncc1[nH]c(=O)n([C@H](C)c3ccccn3)c12 [compound 78, I-BET151] | 0.356 | 0.218 | 0.24 | 14.5 | 0.804 | 0.227 | – | – | – | – | – | –
– | CC(C)(C)NCCCNC(=O)c1cccc(Br)c1 [compound 31, UNC2170 trifluoroacetate] | 120 | 93.1 | 125 | 111 | 110 | 106 | – | – | – | – | – | –
– | Cc1ccc2nc(-c3ccc(N4C(=O)C5C6c7ccccc7C(c7ccccc76)C5C4=O)cc3)sc2c1 (stereo not shown) [compound 23, ZINC000008935041] | 41.6 | 14.8 | 4.43 | 87.4 | 48.7 | 11 | – | – | – | – | – | –
binds | B1 | – | – | – | – | – | – | – | – | – | – | – | –
